Five molecules from ChEMBL document CHEMBL1201862, “PubChem BioAssay data set” (2004) can be followed below.

Assay [1] concerns the target Mitogen-activated protein kinase 10 (Homo sapiens, UniProt P53779). In words: Dose response biochemical screening assay for inhibitors of c-Jun N-Terminal Kinase 3 (JNK3). [Related pubchem assays: 746 ].
The target of assay [2] is FAD-linked sulfhydryl oxidase ALR (Homo sapiens, UniProt P55789). Kind of assay: ALR-catalysed DTT oxidation blockers – biochemical, H2O2 detection, luminescence, cherry-pick, dose response (AID 493248).
Chain of FAD-linked sulfhydryl oxidase ALR (P55789 whole entry): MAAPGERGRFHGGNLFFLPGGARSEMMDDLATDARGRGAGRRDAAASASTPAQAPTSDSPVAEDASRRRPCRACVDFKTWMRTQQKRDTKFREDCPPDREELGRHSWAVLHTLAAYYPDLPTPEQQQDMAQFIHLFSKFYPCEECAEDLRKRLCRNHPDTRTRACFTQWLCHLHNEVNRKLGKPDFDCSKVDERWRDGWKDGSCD
In assay [3] the target is T1, Heat shock factor protein 1 (Mus musculus, UniProt P38532).
T1 sequence (P38532 whole entry): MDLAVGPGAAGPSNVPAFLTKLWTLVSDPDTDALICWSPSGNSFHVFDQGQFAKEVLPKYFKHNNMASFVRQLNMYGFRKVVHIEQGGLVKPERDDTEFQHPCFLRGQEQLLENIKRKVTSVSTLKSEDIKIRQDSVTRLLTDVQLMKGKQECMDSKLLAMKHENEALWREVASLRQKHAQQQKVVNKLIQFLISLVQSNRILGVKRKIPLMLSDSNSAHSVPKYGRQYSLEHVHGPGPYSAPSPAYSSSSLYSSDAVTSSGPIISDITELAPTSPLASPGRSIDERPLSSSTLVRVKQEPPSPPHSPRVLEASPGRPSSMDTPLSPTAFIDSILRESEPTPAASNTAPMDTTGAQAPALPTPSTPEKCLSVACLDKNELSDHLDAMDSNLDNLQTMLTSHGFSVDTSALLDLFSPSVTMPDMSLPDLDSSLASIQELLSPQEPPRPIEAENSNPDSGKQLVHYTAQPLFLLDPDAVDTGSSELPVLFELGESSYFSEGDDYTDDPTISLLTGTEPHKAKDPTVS
Kind of assay: enhancement of HSF1-driven luciferase signal – cell-based, NIH3T3, luminescence, dose retest, confirmation (AID 435004).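 Also: stress induced by proteasome inhibitor MG132 added 30 min after compound; luciferase reporter driven by HSF1 response element in NIH3T3 cells; actives raise luminescence as potentiators of the MG132 stress response.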 The assay is classed as functional.

A further assay addresses T2, Aminopeptidase N (Plasmodium falciparum FcB1/Columbia, UniProt O96935).
T2 sequence (O96935 whole entry): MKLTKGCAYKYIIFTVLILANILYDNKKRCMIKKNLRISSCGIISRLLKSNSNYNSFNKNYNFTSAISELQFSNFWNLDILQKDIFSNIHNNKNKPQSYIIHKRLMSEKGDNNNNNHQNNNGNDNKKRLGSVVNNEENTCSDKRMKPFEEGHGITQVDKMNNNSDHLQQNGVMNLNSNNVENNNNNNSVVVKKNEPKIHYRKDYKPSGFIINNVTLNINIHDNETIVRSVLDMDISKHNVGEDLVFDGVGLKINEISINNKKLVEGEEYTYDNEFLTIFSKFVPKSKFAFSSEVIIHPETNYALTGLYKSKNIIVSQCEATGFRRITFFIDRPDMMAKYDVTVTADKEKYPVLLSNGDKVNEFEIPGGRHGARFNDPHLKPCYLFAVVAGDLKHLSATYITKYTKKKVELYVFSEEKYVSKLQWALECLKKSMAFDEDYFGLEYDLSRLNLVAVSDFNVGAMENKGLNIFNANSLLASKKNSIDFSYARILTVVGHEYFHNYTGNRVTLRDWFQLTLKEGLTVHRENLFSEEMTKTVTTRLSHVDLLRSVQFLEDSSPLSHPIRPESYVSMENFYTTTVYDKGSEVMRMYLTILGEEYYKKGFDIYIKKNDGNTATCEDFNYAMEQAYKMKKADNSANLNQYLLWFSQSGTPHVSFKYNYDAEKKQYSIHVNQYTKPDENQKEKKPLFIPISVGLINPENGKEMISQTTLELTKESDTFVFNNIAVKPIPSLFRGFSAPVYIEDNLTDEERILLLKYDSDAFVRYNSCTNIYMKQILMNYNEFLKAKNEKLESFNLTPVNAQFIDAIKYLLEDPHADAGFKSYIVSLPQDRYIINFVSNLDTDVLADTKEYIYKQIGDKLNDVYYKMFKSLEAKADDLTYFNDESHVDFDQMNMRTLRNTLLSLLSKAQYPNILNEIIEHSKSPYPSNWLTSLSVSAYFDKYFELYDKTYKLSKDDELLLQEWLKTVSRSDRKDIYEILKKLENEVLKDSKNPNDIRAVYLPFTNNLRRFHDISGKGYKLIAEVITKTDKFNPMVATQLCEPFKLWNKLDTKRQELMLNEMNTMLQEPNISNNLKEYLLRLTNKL
In words: malaria alanyl aminopeptidase activity blockers – biochemical, fluorogenic H-Leu-NHMec substrate, 1536-well (AID 1445). On the set-up: species or system Plasmodium falciparum 3D7, 3D7.

A short description of assay [4]: viability of uninfected HEp-2 cells – cell-based, HTS, cytotoxicity control for RSV inhibitor project, dose response (AID 2410). It counts as functional. The note with it: human respiratory syncytial virus.
The target of another assay is Caspase-6 (Homo sapiens, UniProt P55212). In words: inhibition of CASP6 peptide cleavage – biochemical, VEID-R110 fluorescence, cherry-pick, dose response (AID 720632).
Chain of Caspase-6 (P55212 24-179 limits assumed): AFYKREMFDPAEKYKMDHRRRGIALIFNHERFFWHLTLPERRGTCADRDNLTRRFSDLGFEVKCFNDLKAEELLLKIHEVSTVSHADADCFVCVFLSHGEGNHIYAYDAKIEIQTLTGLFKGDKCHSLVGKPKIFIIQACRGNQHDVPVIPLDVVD
Chain of Caspase-6 (P55212 194-293 limits assumed): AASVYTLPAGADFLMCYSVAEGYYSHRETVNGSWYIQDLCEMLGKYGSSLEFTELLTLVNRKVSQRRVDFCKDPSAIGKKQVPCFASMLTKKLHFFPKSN
Assay [5] can be described thus: EF1alpha-driven Renilla reporter with control 3'UTR suppression – Clone20-Shn3RL cells, dual-Glo, cherry-pick, set 2, counter-screen for Shn3 3'UTR targeting project, dose response (AID 720724). The following applies: Dual-Go Shn3RL. It counts as functional, cell-based. A general note: The purpose of a counterscreen is to sort out artefacts and off-target activity.

The nature of assay [6]: Shn3 3'UTR reporter signal decrease – cell-based, Clone20 osteoblasts, firefly luciferase, cherry-pick, set 2, Schnurri-3 inhibitor project, dose response (AID 720490).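 Also: actives lower the luminescence signal as inhibitors.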 The assay is classed as functional.
Assay [7] is described as follows: general cell-killing toxicity readout – plate reader, dry powder samples, cytotoxicity control for PAX8 inhibitor project, dose response (AID 743021). The assay is classed as functional, cell-based.
Assay [8] in a line: reduced cellular PGC1a acetyl-lysine signal – cell-based, cherry-picked samples, dose response (AID 720514).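 Also: potency may reflect raised or lowered acetylation signal.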 The assay is classed as functional.
The nature of assay [9]: non-specific 3'UTR reporter inhibition in Clone20-Shn3RL – cell-based, Renilla luciferase, cherry-picked, counter-screen for Shn3 inhibitor project, dose response (AID 624133). It counts as functional.
Assay [10] is described as follows: loss of viability in HepG2 cells – cell-based, CellTiter-Glo, cherry-picked, cytotoxicity control for Shn3 inhibitor project, dose response (AID 624134). The assay is classed as functional. On the technique in general: In ATP-based viability assays light output follows the ATP content of the culture.
A short description of assay [11]: reduction of Shn3 3'UTR-driven luciferase in osteoblasts – cell-based, Clone20 osteoblasts, firefly luciferase, cherry-picked, dose response (AID 624132).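 Also: firefly luciferase luminescence from reporter carrying the Shn3 3'UTR in osteoblasts.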 It counts as functional.
The target in a further assay is Paired box protein Pax-8 (Homo sapiens, UniProt Q06710). In words: PAX8 transcriptional activity inhibition in RMG-I – RMG-I cells, luciferase, cherry-pick, dose response (AID 687027).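 Also: luciferase reporter driven by Pax8 target thyroperoxidase promoter measured by SteadyGlo luminescence.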 It counts as functional, cell-based.
Chain of Paired box protein Pax-8 (Q06710 whole entry): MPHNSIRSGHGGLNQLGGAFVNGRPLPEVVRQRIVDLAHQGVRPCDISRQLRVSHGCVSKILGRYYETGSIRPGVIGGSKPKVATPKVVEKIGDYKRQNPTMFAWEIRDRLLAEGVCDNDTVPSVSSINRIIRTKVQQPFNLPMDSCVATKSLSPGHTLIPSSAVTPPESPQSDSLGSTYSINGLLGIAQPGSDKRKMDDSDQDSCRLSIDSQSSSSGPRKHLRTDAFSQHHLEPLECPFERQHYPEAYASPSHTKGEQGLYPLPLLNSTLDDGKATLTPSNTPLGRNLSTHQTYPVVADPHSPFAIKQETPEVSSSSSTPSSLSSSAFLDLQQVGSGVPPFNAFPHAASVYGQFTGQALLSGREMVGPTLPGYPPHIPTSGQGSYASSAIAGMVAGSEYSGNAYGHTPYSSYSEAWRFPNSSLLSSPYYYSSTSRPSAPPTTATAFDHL
The target of the next assay is Cytochrome P450 2C19 (Homo sapiens, UniProt P33261). In words: qHTS Assay for Inhibitors and Substrates of Cytochrome P450 2C19. [Related pubchem assays: 410 ]. The assay is classed as ADME. The following applies: read-out: Potency. For orientation: In qHTS, concentration-response curves come from the screen itself.
Chain of Cytochrome P450 2C19 (P33261 whole entry): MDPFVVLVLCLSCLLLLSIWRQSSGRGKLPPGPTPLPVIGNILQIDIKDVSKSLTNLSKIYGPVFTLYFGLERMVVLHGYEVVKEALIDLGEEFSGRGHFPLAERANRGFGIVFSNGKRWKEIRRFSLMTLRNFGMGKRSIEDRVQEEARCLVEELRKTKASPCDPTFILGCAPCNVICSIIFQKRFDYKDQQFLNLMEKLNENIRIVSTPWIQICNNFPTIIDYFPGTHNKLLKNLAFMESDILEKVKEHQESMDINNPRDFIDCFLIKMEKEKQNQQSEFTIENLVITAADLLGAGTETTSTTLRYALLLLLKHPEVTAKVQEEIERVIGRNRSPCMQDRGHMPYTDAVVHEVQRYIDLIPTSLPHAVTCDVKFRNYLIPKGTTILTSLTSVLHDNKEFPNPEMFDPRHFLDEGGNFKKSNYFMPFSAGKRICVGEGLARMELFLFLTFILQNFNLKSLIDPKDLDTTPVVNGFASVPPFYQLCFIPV

Activity calls are given as the source filed them.

Chain of Mitogen-activated protein kinase 10 (P53779 whole entry): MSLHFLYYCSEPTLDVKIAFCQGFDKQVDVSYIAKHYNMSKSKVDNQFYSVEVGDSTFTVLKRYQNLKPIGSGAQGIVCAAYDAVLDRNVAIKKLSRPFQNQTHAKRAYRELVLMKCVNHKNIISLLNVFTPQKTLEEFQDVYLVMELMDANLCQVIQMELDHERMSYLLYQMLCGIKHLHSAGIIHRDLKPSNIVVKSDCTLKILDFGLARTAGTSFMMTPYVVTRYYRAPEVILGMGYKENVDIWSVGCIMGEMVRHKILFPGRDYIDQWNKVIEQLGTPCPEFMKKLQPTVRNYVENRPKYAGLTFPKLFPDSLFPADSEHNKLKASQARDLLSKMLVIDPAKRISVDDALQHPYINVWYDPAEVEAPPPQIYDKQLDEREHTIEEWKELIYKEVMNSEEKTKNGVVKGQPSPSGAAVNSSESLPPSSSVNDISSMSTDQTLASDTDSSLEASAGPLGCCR

For `c1ccc(Nc2ccccc2Nc2ccccn2)nc1`, the IC50 in assay [1] is 18.4 µM (not active). Moreover, the AC50 in assay [2] was 0.773 µM (active).

Turning to `CCOC(=O)COc1ccc(Br)cc1/C=C/c1nc(O)nc(O)c1[N+](=O)[O-]`, in assay [3], the concentration giving a half-maximal response (EC50) was 15.6 µM (active). For the same molecule, the IC50 on Aminopeptidase N was 25.4 µM (active). Besides, the CC50 in assay [4] was 12.7 µM (active). At Caspase-6, the AC50 is 5.09 µM (active).

Turning to `Oc1nc2ccccc2n1C1CCN(C(CCc2ccccc2)c2nnnn2Cc2ccccc2)CC1` (stereo unspecified), the AC50 in assay [5] is 20.3 µM (active); in assay [6], 3.97 µM (active); in assay [7] it was 11.4 µM (active); in [8], 3.88 µM (active); in [9], 60.9 µM (active); in [10], 13.5 µM (active). The AC50 is 1.23 µM (active) in [11] and 1.4 µM (active) on Paired box protein Pax-8.

`O=C(Cc1cccs1)N1Cc2ccccc2-n2nncc2C1`: the AC50 on Caspase-6 is 5.36 µM (active).

As for `O=c1cc(-c2ccc(O)c(O)c2)oc2cccc(O)c12`, the AC50 at Cytochrome P450 2C19 was 15.8 µM (inconclusive).

In general, IC50 refers to the concentration needed to halve the response being measured. By EC50 is commonly meant the concentration giving half of the maximal effect. Broadly, the CC50 is the concentration giving 50% cytotoxicity.
